The source of these data is ChEMBL document CHEMBL5465560, “Selectivity Literature for EUbOPEN Chemogenomic Library” (2024).

Assay [1] has as its target Mitogen-activated protein kinase kinase kinase 1 (Homo sapiens, UniProt Q13233). The experiment in a line: Selectivity interaction (KinomeScan (DiscoverX)) EUB0000595a MAP3K1. The settings on record: at 10 µM.
Assay [2] concerns the target Serine/threonine-protein kinase tousled-like 2 (Homo sapiens) (UniProt Q86UE8). The experiment in a line: Selectivity interaction (ActivX KiNativ screen (ex vivo kinase selectivity in human PBMCs)) EUB0001619a TLK2. Type of assay: cell-based. The settings on record: PBMC, at 1 µM.
In assay [3] the target is RAF proto-oncogene serine/threonine-protein kinase (Homo sapiens) (UniProt P04049). The experiment in a line: Selectivity interaction (KinomeScan (DiscoverX)) EUB0000695a RAF1. The settings on record: at 100 nM.
Assay [4] deals with [Pyruvate dehydrogenase (acetyl-transferring)] kinase isozyme 1, mitochondrial (Homo sapiens, UniProt Q15118). Put plainly: Selectivity interaction (Kinase screening (Upstate/Millipore)) EUB0000604a PDK1.
In assay [5] the target is Serine/threonine-protein kinase WNK1 (Homo sapiens) (UniProt Q9H4A3). Put plainly: Selectivity interaction (ActivX KiNativ screen (kinase selectivity in THP-1 cell lysates)) EUB0000639a WNK1. Type of assay: subcellular. The settings on record: lysate, at 5 µM.
Assay [6] has as its target Leucine-rich repeat serine/threonine-protein kinase 2 (Homo sapiens, UniProt Q5S007). Put plainly: (§1) Selectivity interaction (KinomeScan (DiscoverX)) EUB0000045b LRRK2.
Assay [7] concerns Leucine-rich repeat serine/threonine-protein kinase 2 (Homo sapiens), Q5S007 [G2019S]. Described as §1.
Leucine-rich repeat serine/threonine-protein kinase 2 (Homo sapiens), Q5S007 [G2019S], sequence (Q5S007 whole entry G2019S): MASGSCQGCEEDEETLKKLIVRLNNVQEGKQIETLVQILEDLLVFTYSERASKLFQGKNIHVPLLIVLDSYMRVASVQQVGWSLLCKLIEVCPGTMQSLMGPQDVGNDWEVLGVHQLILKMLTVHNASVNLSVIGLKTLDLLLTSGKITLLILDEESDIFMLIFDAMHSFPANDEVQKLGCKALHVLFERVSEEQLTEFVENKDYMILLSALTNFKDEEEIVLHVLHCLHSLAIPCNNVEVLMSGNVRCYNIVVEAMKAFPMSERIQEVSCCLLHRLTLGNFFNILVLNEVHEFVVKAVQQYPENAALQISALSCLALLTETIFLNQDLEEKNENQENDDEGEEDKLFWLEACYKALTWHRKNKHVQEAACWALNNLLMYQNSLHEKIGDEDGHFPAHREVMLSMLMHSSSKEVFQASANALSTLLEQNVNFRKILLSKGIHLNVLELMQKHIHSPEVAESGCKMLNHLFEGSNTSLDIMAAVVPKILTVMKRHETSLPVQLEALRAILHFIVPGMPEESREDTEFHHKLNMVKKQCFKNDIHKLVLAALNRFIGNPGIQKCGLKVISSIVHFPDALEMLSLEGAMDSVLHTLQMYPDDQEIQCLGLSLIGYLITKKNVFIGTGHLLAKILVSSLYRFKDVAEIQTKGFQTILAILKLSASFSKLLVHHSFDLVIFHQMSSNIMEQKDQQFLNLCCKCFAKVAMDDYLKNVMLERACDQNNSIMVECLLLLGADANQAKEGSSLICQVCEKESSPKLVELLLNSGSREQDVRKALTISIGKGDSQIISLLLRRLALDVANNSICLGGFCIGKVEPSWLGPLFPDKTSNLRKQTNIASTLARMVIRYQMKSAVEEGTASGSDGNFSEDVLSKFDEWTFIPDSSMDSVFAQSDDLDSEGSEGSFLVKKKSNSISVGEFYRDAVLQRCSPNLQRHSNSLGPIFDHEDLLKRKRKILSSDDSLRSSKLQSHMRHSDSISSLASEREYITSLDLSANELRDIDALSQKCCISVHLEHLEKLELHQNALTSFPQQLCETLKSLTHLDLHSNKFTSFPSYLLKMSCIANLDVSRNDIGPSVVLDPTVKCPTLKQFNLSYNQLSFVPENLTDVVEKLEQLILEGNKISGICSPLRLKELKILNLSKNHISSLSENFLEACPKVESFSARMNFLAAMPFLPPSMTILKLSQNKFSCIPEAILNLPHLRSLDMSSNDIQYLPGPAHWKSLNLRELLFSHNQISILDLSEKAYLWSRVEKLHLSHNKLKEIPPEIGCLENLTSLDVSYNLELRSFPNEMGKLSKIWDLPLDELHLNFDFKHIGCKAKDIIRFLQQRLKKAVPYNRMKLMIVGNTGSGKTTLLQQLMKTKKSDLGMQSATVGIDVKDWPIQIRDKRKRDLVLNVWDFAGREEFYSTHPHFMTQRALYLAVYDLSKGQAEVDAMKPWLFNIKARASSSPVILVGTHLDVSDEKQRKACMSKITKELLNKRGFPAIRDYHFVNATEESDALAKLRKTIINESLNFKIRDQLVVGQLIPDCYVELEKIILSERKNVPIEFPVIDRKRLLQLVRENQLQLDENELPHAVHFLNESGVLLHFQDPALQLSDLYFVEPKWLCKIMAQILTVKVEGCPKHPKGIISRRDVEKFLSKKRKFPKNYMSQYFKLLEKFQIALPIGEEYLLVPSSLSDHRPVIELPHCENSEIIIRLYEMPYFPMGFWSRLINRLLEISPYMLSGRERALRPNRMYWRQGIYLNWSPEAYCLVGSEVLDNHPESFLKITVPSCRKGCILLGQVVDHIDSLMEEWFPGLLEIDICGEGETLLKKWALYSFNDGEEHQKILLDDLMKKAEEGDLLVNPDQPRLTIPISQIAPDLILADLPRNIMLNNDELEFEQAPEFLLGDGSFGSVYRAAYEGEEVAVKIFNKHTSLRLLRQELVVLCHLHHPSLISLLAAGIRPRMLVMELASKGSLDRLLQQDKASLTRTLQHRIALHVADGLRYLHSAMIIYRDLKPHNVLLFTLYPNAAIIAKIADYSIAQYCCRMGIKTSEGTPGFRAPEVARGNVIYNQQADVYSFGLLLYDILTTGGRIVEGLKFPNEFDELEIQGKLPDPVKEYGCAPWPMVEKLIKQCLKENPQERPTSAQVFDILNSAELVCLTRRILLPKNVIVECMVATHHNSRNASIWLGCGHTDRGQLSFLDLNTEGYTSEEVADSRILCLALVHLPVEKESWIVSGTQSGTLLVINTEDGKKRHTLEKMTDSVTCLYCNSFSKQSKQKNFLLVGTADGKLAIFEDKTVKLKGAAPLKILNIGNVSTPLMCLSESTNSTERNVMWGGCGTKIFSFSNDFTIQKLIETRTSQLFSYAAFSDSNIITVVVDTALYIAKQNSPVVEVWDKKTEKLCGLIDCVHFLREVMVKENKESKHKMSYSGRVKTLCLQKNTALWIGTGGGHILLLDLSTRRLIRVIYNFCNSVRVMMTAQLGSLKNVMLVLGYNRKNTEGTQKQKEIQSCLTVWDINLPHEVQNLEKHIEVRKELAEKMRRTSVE
The test system of assay [8] is Receptor-type tyrosine-protein kinase FLT3 (Homo sapiens), P36888 [UNDEFINED MUTATION]. Put plainly: Selectivity interaction (KinomeScan (DiscoverX)) EUB0001049a FLT3. The settings on record: at 1 µM.
Receptor-type tyrosine-protein kinase FLT3 (Homo sapiens), P36888 [UNDEFINED MUTATION], sequence (P36888 whole entry, looked up, change not shown): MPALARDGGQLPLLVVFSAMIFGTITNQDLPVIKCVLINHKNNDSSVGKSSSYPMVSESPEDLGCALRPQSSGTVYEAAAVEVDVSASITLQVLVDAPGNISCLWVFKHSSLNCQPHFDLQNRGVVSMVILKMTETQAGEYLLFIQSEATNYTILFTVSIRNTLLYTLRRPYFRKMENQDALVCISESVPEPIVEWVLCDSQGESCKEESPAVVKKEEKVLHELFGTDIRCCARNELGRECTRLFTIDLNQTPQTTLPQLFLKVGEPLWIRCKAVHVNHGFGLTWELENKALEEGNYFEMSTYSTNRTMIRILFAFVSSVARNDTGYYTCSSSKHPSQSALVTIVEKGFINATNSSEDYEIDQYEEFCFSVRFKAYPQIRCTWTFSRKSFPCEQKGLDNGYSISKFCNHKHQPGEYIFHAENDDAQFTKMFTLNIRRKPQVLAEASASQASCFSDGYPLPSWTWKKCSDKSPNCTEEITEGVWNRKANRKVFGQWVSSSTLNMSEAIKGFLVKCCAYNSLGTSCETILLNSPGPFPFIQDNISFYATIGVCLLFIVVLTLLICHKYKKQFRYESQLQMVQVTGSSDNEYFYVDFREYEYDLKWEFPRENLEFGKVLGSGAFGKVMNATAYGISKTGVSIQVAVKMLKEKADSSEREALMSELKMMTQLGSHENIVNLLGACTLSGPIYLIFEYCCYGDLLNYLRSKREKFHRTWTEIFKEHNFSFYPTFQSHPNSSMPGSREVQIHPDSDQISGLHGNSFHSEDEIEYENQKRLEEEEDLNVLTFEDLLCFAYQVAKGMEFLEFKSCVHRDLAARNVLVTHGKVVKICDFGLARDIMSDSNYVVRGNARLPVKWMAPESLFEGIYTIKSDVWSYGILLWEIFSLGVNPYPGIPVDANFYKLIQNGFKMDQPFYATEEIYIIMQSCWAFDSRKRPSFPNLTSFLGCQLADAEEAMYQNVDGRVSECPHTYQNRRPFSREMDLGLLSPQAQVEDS
The target of assay [9] is T1, Cyclin-G-associated kinase (Homo sapiens) (UniProt O14976).
T1 sequence (whole entry): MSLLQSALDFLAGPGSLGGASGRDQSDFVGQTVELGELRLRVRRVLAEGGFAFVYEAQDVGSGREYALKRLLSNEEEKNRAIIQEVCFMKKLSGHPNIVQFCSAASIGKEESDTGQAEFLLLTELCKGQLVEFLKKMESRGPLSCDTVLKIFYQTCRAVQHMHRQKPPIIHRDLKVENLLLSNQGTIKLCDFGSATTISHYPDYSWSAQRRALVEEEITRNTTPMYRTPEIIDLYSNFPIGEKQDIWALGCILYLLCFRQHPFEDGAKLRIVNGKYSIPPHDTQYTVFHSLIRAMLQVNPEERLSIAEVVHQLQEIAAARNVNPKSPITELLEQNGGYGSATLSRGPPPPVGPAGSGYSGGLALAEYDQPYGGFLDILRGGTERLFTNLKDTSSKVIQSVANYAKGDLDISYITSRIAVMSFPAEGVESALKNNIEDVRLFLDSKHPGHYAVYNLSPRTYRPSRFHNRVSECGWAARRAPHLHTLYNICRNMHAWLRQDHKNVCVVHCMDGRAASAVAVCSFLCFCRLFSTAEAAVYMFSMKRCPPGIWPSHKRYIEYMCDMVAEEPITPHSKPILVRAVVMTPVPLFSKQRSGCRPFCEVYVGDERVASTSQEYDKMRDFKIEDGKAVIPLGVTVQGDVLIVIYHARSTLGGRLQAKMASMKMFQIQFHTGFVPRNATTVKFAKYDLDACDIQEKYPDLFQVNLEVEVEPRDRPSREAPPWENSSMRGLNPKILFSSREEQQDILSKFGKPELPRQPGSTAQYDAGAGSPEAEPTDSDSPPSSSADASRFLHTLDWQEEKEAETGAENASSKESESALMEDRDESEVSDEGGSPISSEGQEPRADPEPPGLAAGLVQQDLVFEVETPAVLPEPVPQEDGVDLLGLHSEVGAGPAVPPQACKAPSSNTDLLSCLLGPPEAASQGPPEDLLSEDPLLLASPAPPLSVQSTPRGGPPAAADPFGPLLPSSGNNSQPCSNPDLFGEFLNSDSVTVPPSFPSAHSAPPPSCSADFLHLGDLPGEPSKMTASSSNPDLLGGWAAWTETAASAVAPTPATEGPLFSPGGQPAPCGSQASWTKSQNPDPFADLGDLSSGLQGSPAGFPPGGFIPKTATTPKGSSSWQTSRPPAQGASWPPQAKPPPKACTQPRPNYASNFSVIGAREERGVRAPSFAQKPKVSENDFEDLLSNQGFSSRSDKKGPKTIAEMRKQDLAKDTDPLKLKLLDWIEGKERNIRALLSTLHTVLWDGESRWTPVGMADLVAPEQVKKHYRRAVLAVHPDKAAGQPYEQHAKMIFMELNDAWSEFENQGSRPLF
Put plainly: Selectivity interaction (KinomeScan (DiscoverX)) EUB0000655a GAK. The settings on record: at 10 µM.

The target in assay [10] is Cannabinoid receptor 2 (Homo sapiens) (UniProt P34972). Put plainly: Selectivity interaction (Panel of non-epigenetic targets (kinases, GPCRs, ion channels, and transporters, Eurofins) ) EUB0000271b CNR2. The settings on record: at 1 µM.
In assay [11] the target is T2, Mitogen-activated protein kinase kinase kinase kinase 2 (Homo sapiens) (UniProt Q12851).
T2 sequence (whole entry): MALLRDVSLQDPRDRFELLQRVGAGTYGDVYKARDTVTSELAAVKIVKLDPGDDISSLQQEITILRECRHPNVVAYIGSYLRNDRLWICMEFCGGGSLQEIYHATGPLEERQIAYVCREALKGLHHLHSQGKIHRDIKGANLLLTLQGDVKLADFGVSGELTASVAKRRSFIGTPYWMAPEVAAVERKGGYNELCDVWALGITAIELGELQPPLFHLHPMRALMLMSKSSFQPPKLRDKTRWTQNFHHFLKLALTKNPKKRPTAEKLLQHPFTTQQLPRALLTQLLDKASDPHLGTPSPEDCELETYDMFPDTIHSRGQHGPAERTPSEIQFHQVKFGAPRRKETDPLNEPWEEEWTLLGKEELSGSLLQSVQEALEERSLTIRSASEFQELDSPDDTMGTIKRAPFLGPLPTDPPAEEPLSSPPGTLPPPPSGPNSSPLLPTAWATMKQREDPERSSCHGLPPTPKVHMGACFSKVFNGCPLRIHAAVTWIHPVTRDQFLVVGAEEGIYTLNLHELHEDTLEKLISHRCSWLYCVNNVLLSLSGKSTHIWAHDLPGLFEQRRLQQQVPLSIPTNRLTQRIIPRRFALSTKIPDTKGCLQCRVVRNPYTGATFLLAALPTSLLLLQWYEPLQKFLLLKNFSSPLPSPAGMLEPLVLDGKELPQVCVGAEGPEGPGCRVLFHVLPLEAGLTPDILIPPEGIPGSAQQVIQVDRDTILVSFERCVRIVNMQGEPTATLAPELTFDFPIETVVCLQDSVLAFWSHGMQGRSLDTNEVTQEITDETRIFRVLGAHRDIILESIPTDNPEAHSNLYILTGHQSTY
Put plainly: Selectivity interaction (KinomeScan (DiscoverX)) EUB0000229b MAP4K2. The settings on record: at 10 µM.

The target of assay [12] is Serine/threonine-protein kinase MARK2 (Homo sapiens) (UniProt Q7KZI7). Put plainly: Selectivity interaction (KinomeScan (DiscoverX)) EUB0000229b MARK2. The settings on record: at 10 µM.

Leucine-rich repeat serine/threonine-protein kinase 2, sequence (Q5S007 whole entry): as the sequence (Q5S007 whole entry G2019S) above, with S2019G counted along it
Mitogen-activated protein kinase kinase kinase 1, sequence (Q13233 whole entry): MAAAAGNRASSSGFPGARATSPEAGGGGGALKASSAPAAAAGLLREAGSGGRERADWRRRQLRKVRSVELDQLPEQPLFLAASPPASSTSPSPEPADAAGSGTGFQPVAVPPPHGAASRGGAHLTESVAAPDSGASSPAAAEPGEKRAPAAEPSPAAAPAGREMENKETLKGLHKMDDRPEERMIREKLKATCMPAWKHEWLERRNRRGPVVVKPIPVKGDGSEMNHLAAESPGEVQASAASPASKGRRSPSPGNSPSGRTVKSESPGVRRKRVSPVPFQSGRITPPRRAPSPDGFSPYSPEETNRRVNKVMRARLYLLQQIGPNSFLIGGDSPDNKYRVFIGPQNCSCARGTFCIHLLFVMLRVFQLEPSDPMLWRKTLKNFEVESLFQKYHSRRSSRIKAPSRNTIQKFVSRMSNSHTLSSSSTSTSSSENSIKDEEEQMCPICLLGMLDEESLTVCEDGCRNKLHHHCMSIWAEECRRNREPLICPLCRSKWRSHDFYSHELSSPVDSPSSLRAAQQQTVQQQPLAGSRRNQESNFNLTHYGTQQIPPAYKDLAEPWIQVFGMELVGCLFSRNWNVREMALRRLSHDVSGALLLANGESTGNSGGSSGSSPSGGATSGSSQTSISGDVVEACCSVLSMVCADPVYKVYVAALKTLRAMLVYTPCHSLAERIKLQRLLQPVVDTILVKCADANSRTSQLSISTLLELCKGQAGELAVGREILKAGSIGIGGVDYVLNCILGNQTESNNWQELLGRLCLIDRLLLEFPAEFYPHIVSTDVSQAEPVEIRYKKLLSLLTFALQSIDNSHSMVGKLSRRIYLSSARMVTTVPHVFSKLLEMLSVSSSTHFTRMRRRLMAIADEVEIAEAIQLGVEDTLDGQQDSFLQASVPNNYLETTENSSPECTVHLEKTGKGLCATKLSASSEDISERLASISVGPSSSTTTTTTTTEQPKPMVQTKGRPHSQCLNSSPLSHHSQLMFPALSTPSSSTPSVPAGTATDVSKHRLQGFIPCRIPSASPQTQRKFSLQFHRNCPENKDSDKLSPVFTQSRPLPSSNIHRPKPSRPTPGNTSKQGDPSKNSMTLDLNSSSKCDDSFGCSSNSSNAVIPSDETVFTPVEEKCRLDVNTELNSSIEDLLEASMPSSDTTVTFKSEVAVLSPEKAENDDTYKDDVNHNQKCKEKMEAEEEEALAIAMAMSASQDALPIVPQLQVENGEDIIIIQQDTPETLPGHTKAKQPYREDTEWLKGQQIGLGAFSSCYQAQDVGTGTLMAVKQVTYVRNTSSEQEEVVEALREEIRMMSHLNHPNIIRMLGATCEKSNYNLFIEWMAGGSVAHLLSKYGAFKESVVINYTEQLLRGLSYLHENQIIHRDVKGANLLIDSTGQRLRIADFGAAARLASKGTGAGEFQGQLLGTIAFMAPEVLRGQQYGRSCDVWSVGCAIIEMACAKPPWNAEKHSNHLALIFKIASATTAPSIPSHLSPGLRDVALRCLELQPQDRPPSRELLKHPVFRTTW

In the case of `COCC(=O)NC/C=C/c1ccc2ncnc(Nc3ccc(Oc4ccc(C)nc4)c(C)c3)c2c1` [CP-724714], the % of control in assay [1] is 100%. Take `N#Cc1cccc(-c2c[nH]c3ncnc(N4CCOCC4)c23)c1`: the % of inhibition in assay [2] was -21%. Regarding `Cc1cc(F)c(C(=O)Nc2cccc(-c3nncn3C(C)C)n2)cc1-n1cnc(C2CC2)c1`, in [3], the % of control was 79%.

On to `Cc1cnc(Nc2ccc(F)cc2Cl)nc1-c1c[nH]c(C(=O)N[C@H](CO)c2cccc(Cl)c2)c1`, for which the % of inhibition in [4] came out at 10%.

As for `CC[C@@H]1[C@H](F)C(=O)N[C@@H]1COc1nccc2cc(C(N)=O)c(OC)cc12` [ZIMLOVISERTIB], the % of inhibition in assay [5] was -14.5%. For the compound `C=CC(=O)Nc1cc(-n2c(=O)ccc3cnc4ccc(-c5ccc(NS(C)(=O)=O)cc5)cc4c32)ccc1C`, the % of control was 100% in assay [6] (at 1 µM), 100% in assay [6] (at 10 µM), 100% in [7] (at 1 µM) and 62% in [7] (at 10 µM). `COc1cc(Nc2nc(C)cc(-c3cnn4nc(OC)ccc34)n2)cc(C(F)(F)F)c1`: the % of control in assay [8] came to 96%.

Turning to `CN(C)CCOc1ccc(-c2nc(-c3ccncc3)c(-c3ccc4c(c3)CC/C4=N\O)[nH]2)cc1`, in assay [9], the % of control stood at 25%. As to `Cc1cc(C)cc([C@@H]2c3cc(C)ccc3NC(=O)CN2C(=O)c2ccc(Br)s2)c1`, the % of inhibition in [10] is -19%.

`COc1cc(N(C)c2ccnc3ccc(C(F)(F)F)cc23)cc(OC)c1OC`: the % binding in assay [11] is 65%; in assay [12], 85%.
